From paper PMC10503991, “Synthesis of some new isoxazole compounds and their biological tyrosinase and antioxidant activities” (Turkish Journal of Chemistry, 2021)

molecular target: mushroom tyrosinase (Agaricus bisporus, UniProt C7FF04); assay: Mushroom tyrosinase inhibition assay (L-DOPA substrate, 475 nm); assay type: biochemical; settings: abstract, unit not given
Experimental: The mushroom tyrosinase inhibition assay was carried out according previously reported method. […] After 10 min of a preincubation period at room temperature, the enzymatic reaction was initiated with the addition of L-DOPA (3 mM, 20 μL) as substrate. The absorbance was read at 475 nm. The compound concentration giving 50% inhibition of tyrosinase activity was determined by interpolation of concentration-response curves. […] The extract concentration giving 50% (IC50) of the original tyrosinase activity was determined.
The position, number and nature of the substituent on benzene and pyridine rings were varied in order to identify the most appropriate group.

Chain of mushroom tyrosinase (C7FF04 1-392): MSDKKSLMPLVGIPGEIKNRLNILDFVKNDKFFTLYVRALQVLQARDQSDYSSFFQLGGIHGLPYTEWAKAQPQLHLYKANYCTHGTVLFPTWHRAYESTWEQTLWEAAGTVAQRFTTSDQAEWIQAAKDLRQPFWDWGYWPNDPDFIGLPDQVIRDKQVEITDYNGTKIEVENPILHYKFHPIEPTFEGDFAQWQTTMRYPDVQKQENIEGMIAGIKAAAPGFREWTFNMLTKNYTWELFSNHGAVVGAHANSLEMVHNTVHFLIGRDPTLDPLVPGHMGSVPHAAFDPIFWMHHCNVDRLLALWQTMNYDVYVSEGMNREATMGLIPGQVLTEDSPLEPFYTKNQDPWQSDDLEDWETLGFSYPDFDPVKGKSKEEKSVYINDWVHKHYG

Row | SMILES | IC50 values for the tyrosinase enzyme inhibition
1 | COc1ccc(-c2cc(-c3ccncc3)on2)cc1 [Compound 14, 3-(4-methoxyphenyl)-5-(4-pyridinyl)isoxazole] | did not show any inhibition effect
2 | COc1ccc(-c2cc(-c3ccc(OC)cc3OC)on2)cc1 [Compound 9, 3-(4-methoxyphenyl)-5-(2,4-dimethoxyphenyl)isoxazole] | did not show any inhibition effect
3 | Oc1cccc(-c2cc(-c3ccccc3)on2)c1 [Compound 10, 3-(3-hydroxyphenyl)-5-(phenyl)isoxazole] | did not show any inhibition effect

same assay, conditions: mushroom tyrosinase, L-DOPA substrate, kojic acid positive control

Row | SMILES | Tyrosinase (IC50 μg/mL)
4 | COc1ccc(-c2cc(-c3ccncc3)on2)cc1 [Compound 14, 3-(4-methoxyphenyl)-5-(4-pyridinyl)isoxazole] | No inhibition
5 | COc1ccc(-c2cc(-c3ccc(OC)cc3OC)on2)cc1 [Compound 9, 3-(4-methoxyphenyl)-5-(2,4-dimethoxyphenyl)isoxazole] | No inhibition
6 | Oc1cccc(-c2cc(-c3ccccc3)on2)c1 [Compound 10, 3-(3-hydroxyphenyl)-5-(phenyl)isoxazole] | No inhibition

test system: not given; assay: not given; settings: not given

Row | SMILES | melting point [°C]
7 | COc1ccc(-c2cc(-c3ccncc3)on2)cc1 [Compound 14, 3-(4-methoxyphenyl)-5-(4-pyridinyl)isoxazole] | 141 to 143
8 | COc1ccc(-c2cc(-c3cccc(O)c3)no2)c(OC)c1 [Compound 11, 3-(3-hydroxyphenyl)-5-(2,4-dimethoxyphenyl)isoxazole] | 168 to 169
9 | COc1ccc(OC)c(-c2cc(-c3ccc(O)cc3)no2)c1 [Compound 12, 3-(4-hydroxyphenyl)-5-(2,5-dimethoxyphenyl)isoxazole] | 176 to 178
10 | COc1ccc(-c2cc(-c3ccc(OC)cc3OC)on2)cc1 [Compound 9, 3-(4-methoxyphenyl)-5-(2,4-dimethoxyphenyl)isoxazole] | 93 to 94
11 | Oc1cccc(-c2cc(-c3ccccc3)on2)c1 [Compound 10, 3-(3-hydroxyphenyl)-5-(phenyl)isoxazole] | 230 to 231
12 | COc1ccccc1-c1cc(-c2ccc(OC)c(OC)c2OC)on1 [Compound 8, 3-(2-methoxyphenyl)-5-(2,3,4-trimethoxyphenyl)isoxazole] | 102 to 103

test system: not given; assay: not given; design: method as in PMID 33763478; settings: comparator in literature study; cited from earlier work

Row | SMILES | antioxidant activity in DPPH assay IC50 [µg/mL]
13 | Cc1c(C)c2c(c(C)c1O)CCC(C)(C(=O)O)O2 (centres unmarked) [Trolox, reference compound] | 2.75

test system: not listed separately; assay: DPPH free radical scavenging method; settings: concentration causing 50% scavenging of DPPH radical; Trolox standard
Experimental: The DPPH free radical scavenging activities of 8–14 compounds were determined using the method described before. Alcoholic solution of DPPH (1 mL, […] in methanol) was mixed with 8–14 compound solutions prepared in DMSO. […] DPPH gives a purple color in methanol. This color is decayed by antioxidant. So reduction in the absorbance indicates DPPH• scavenging activity. Trolox was used as standard radical scavenger and values were expressed as SC50 (μg compound per mL), the concentration of the samples that causes 50% scavenging of DPPH radical.

Row | SMILES | DPPH, SC50 [µg/mL]
14 | COc1ccc(-c2cc(-c3ccncc3)on2)cc1 [Compound 14, 3-(4-methoxyphenyl)-5-(4-pyridinyl)isoxazole] | 54.41 ± 2.87
15 | Cc1c(C)c2c(c(C)c1O)CCC(C)(C(=O)O)O2 (centres unmarked) [Trolox, reference compound] | 5.56 ± 0.85
16 | COc1ccc(-c2cc(-c3cccc(O)c3)no2)c(OC)c1 [Compound 11, 3-(3-hydroxyphenyl)-5-(2,4-dimethoxyphenyl)isoxazole] | 81.52 ± 3.66
17 | COc1cccc(-c2cc(-c3ccccn3)on2)c1 [Compound 13, 3-(3-methoxyphenyl)-5-(2-pyridinyl)isoxazole] | 57.32 ± 2.12
18 | COc1ccc(OC)c(-c2cc(-c3ccc(O)cc3)no2)c1 [Compound 12, 3-(4-hydroxyphenyl)-5-(2,5-dimethoxyphenyl)isoxazole] | 40.21 ± 2.71
19 | COc1ccc(-c2cc(-c3ccc(OC)cc3OC)on2)cc1 [Compound 9, 3-(4-methoxyphenyl)-5-(2,4-dimethoxyphenyl)isoxazole] | 71.96 ± 2.36
20 | Oc1cccc(-c2cc(-c3ccccc3)on2)c1 [Compound 10, 3-(3-hydroxyphenyl)-5-(phenyl)isoxazole] | 65.65 ± 1.69
21 | COc1ccccc1-c1cc(-c2ccc(OC)c(OC)c2OC)on1 [Compound 8, 3-(2-methoxyphenyl)-5-(2,3,4-trimethoxyphenyl)isoxazole] | 61.42 ± 1.41

test system: not listed separately; assay: Cupric ion reducing (CUPRAC) method; settings: as printed in the results text b37
Experimental: The capacity of 8–14 compounds to reduce cupric ions was established as it was described before. A reaction mixture was prepared by mixing a volume of CuCl2 (0.250 mL, 10 mM), neocuproine (0.250 mL, 7.5 mM in ethanol) and NH4Ac buffer (0.250 mL, 1 M, pH 7.0) with standard/compound solutions at different concentrations. SA blank was prepared by adding sample solution to premixed reaction mixture CuCl2. The absorbances of the blank and sample were read at 450 nm after a 30-min incubation at room temperature. The absorbance of the blank was subtracted from that of the sample. CUPRAC activity was expressed as equivalents of trolox (mg TEAC/mg compound).

Row | SMILES | CUPRAC values [mg TEAC/mg]
22 | COc1cccc(-c2cc(-c3ccccn3)on2)c1 [Compound 13, 3-(3-methoxyphenyl)-5-(2-pyridinyl)isoxazole] | 1.25 ± 0.019

same assay, conditions: trolox equivalents per mg compound

Row | SMILES | CUPRAC (mg TEAC/mg)
23 | COc1ccc(-c2cc(-c3ccncc3)on2)cc1 [Compound 14, 3-(4-methoxyphenyl)-5-(4-pyridinyl)isoxazole] | 1.189 ± 0.021
24 | COc1ccc(-c2cc(-c3cccc(O)c3)no2)c(OC)c1 [Compound 11, 3-(3-hydroxyphenyl)-5-(2,4-dimethoxyphenyl)isoxazole] | 0.584 ± 0.011
25 | COc1cccc(-c2cc(-c3ccccn3)on2)c1 [Compound 13, 3-(3-methoxyphenyl)-5-(2-pyridinyl)isoxazole] | 1.245 ± 0.019
26 | COc1ccc(OC)c(-c2cc(-c3ccc(O)cc3)no2)c1 [Compound 12, 3-(4-hydroxyphenyl)-5-(2,5-dimethoxyphenyl)isoxazole] | 1.233 ± 0.015
27 | COc1ccc(-c2cc(-c3ccc(OC)cc3OC)on2)cc1 [Compound 9, 3-(4-methoxyphenyl)-5-(2,4-dimethoxyphenyl)isoxazole] | 0.856 ± 0.013
28 | Oc1cccc(-c2cc(-c3ccccc3)on2)c1 [Compound 10, 3-(3-hydroxyphenyl)-5-(phenyl)isoxazole] | 0.789 ± 0.009
29 | COc1ccccc1-c1cc(-c2ccc(OC)c(OC)c2OC)on1 [Compound 8, 3-(2-methoxyphenyl)-5-(2,3,4-trimethoxyphenyl)isoxazole] | 1.156 ± 0.026
